Data reported in article PMC4077696 (PLoS Biology, 2014).
Structures can show the parent of a compound that is named as a salt.

Target: T1, PMV in P. falciparum expressing PMVHA-glmS (Plasmodium falciparum, UniProt Q8I6Z5)
T1 construct: incorporated in frame at the 3′ of the PMV locus by homologous recombination; expressed in transfected cells; host or cells: P. falciparum NF54 with pPMVHA-glmS integrated at the PMV locus, also transfected with PfEMP3-GFP
Assay: PEXEL processing of PfEMP3-GFP in PMVHA-glmS parasites with PMV knockdown, immunoblot
Format: cell-based
Details: 20 µM 916, 5 h
Method: As 916 inhibited PMV in parasites (for example, by 13-fold, Figure 3G), the additive effect of PMV knockdown plus 916 treatment was investigated. Parasites expressing PMVHA-glmS were transfected with a construct encoding PfEMP3-GFP, and PEXEL processing was assessed by immunoblot.
Trophozoites (30–34 h) expressing PfEMP3-GFP, KAHRP-GFP, or SERA5s-GFP were magnet-purified (Miltenyi Biotech), incubated with inhibitors in 400 µl total volume at 37°C for 1–5 h, treated with 0.09% saponin containing inhibitor, and washed pellets were solubilized in Laemmli's buffer, boiled for 3 min, and frozen at −20°C. Proteins were separated by SDS-PAGE, transferred to nitrocellulose and blocked in 10% skim milk/PBS-T, and probed with rat α-HA (Roche 3F10; 1∶1,000), mouse α-GFP (Roche; 1∶1,000), rabbit α-Aldolase (1∶1,000), rabbit α-HSP70 (1∶4,000), rabbit α-PfPMV (1∶1,000), or rabbit α-Hyp8 (1∶500) primary antibodies followed by horseradish peroxidase-conjugated secondary antibodies (Silenius) and detected by enhanced chemiluminescence (Amersham).

T1 sequence (Q8I6Z5 whole entry): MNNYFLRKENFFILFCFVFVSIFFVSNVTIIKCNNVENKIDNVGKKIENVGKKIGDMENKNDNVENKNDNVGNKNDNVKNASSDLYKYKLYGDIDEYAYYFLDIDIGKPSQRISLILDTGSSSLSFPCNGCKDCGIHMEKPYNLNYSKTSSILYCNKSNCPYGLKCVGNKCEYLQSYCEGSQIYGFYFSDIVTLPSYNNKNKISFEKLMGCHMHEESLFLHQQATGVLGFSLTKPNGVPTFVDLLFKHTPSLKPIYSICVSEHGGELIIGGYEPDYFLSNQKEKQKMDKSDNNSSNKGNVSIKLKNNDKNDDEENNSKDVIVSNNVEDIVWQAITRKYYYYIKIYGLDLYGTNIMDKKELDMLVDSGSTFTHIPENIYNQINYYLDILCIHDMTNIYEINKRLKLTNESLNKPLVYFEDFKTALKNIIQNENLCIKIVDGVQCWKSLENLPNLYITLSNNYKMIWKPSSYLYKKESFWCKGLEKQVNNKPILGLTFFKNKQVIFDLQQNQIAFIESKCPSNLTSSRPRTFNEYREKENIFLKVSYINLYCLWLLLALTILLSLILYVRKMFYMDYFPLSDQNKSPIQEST

Compound: CC(C)C[C@H](NC(=O)[C@@H](NC(=O)[C@H](CCCNC(=N)N)NS(=O)(=O)Cc1ccccc1)C(C)C)[C@@H](O)CC(=O)NCCc1ccccc1 [compound 916, PhCH2SO2-Arg(NH2)-Val-Sta-NH(CH2)2Ph .TFA]
- Enhancement of PEXEL cleavage impairment following PMV knockdown: 50%
